By IC50 is commonly meant the concentration that inhibits the measured activity by half. A higher IC50 goes with weaker potency in that assay.

The values below come from patent US10913745B2, “Octahydro-pyrrolo[3,4-c]-pyrrole derivatives and analogs thereof as autotaxin inhibitors” (Hoffmann-La Roche Inc., priority 2013, dated 2021).

The target of the test is ATX (human His-tagged) (Homo sapiens (Human), UniProt Q13822). In words: Human ATX enzyme inhibition assay (fluorescence quenching, MR121 substrate). The following applies: MR121 substrate 1 μM, ATX 30 nM final, 30° C. It counts as biochemical. The method, then: Human ATX Enzyme Inhibition Assay
ATX inhibition was measured by a fluorescence quenching assay using a specifically labeled substrate analogue (MR121 substrate). To obtain this MR121 substrate, BOC and TBS protected 6-amino-hexanoic acid (R)-3-({2-[3-(2-{2-[2-(2-amino-ethoxy)-ethoxy]-ethoxy}-ethoxy)-propionylamino]-ethoxy}-hydroxy-phosphoryloxy)-2-hydroxy-propyl ester (Ferguson et al., Org Lett 2006, 8 (10), 2023) was labeled with MR121 fluorophore (CAS 185308-24-1, 1-(3-carboxypropyl)-11-ethyl-1,2,3,4,8,9,10,11-octahydro-dipyrido[3,2-b:2′,3′-i]phenoxazin-13-ium) on the free amine of the ethanolamine side and then, after deprotection, subsequently with tryptophan on the side of the aminohexanoic acid. Assay working solutions were made as follows: Assay buffer (50 mM Tris-HCl, 140 mM NaCl, 5 mM KCl, 1 mM CaCl2, 1 mM MgCl2, 0.01% Triton-X-100, pH 8.0; ATX solution: ATX (human His-tagged) stock solution (1.08 mg/mL in 20 mM bicine, pH 8.5, 0.15 M NaCl, 10% glycerol, 0.3% CHAPS, 0.02% NaN3), diluted to 1.4-2.5× final concentration in assay buffer; MR121 substrate solution: MR121 substrate stock solution (800 μM MR121 substrate in DMSO), diluted to 2-5× final concentration in assay buffer. Test compounds (10 mM stock in DMSO, 8 μL) were obtained in 384 well sample plates (Corning Costar #3655) and diluted with 8 μL DMSO. Row-wise serial dilutions were made by transferring 8 μL cpd solution to the next row up to row O. The compound and control solutions were mixed five times and 2 μL were transferred to 384 well assay plates (Corning Costar #3702). Then, 15 μL of 41.7 nM ATX solution was added (30 nM final concentration), mixed five times and then incubated for 15 minutes at 30° C. 10 μL of MR121 substrate solution was added (1 μM final concentration), mixed 30 times and then incubated for 15 minutes at 30° C.
The compound `NS(=O)(=O)c1ccc(C(=O)N2C[C@H]3CCN(C(=O)OCc4cc(Cl)cc(Cl)c4)C[C@@H]3C2)cc1` (racemic) [Example 1.03, trans-3,5-dichlorobenzyl 2-(4-sulfamoylbenzoyl)hexahydro-1H-pyrrolo[3,4-c]pyridine-5(6H)-carboxylate] registered a half-maximal inhibitory concentration (IC50) of 0.007 µM. The same measure for `NS(=O)(=O)c1ccc(C(=O)N2C[C@H]3CCN(C(=O)OCc4cc(Cl)cc(Cl)c4)C[C@@H]3C2)cc1` (single isomer, unassigned) [Example 9A, (−)-trans-3,5-Dichlorobenzyl 2-(4-sulfamoylbenzoyl)hexahydro-1H-pyrrolo[3,4-c]pyridine-5(6H)-carboxylate]: 0.004 µM. The same measure for `NS(=O)(=O)c1ccc(C(=O)N2C[C@H]3CCN(C(=O)OCc4cc(Cl)cc(Cl)c4)C[C@@H]3C2)cc1` (single isomer, unassigned) [Example 9B, (+)-trans-3,5-dichlorobenzyl 2-(4-sulfamoylbenzoyl)hexahydro-1H-pyrrolo[3,4-c]pyridine-5(6H)-carboxylate]: 0.005 µM; for `CNS(=O)(=O)c1ccc(C(=O)N2C[C@H]3CN(C(=O)OCc4cc(Cl)cc(Cl)c4)C[C@H]3C2)cc1` [Example 1, (3aR,6aS)-3,5-Dichlorobenzyl 5-(4-(N-methylsulfamoyl)benzoyl)hexahydropyrrolo[3,4-c]pyrrole-2(1H)-carboxylate]: 1.16 µM. The same measure for `O=C(OCc1cc(Cl)cc(Cl)c1)N1C[C@@H]2CN(C(=O)c3ccc(O)cn3)C[C@@H]2C1` [Example 1.01, (3aR,6aS)-3,5-dichlorobenzyl 5-(5-hydroxypicolinoyl)hexahydropyrrolo[3,4-c]pyrrole-2(1H)-carboxylate]: 0.293 µM; for `O=C(OCc1cc(Cl)cc(Cl)c1)N1C[C@@H]2CN(C(=O)c3ccc(O)cc3)C[C@@H]2C1` [Example 1.02, (3aR,6aS)-3,5-dichlorobenzyl 5-(4-hydroxybenzoyl)hexahydropyrrolo[3,4-c]pyrrole-2(1H)-carboxylate]: 0.444 µM; for `NS(=O)(=O)c1ccc(C(=O)N2C[C@H]3CN(C(=O)OCc4cc(Cl)cc(Cl)c4)C[C@H]3C2)s1` [Example 1.04, (3aR,6aS)-3,5-dichlorobenzyl 5-(5-sulfamoylthiophene-2-carbonyl)hexahydropyrrolo[3,4-c]pyrrole-2(1H)-carboxylate]: 0.008 µM. On to `NS(=O)(=O)c1ccc(C(=O)N2C[C@H]3CN(C(=O)OCc4cc(Cl)cc(Cl)c4)C[C@H]3C2)cc1` [Example 1.05, (3aR,6aS)-3,5-dichlorobenzyl 5-(4-sulfamoylbenzoyl)hexahydropyrrolo[3,4-c]pyrrole-2(1H)-carboxylate], for which the IC50 came to 0.004 µM. `Nc1ccc(C(=O)N2C[C@H]3CN(C(=O)OCc4cc(Cl)cc(Cl)c4)C[C@H]3C2)cc1` [Example 1.06, (3aR,6aS)-3,5-dichlorobenzyl 5-(4-aminobenzoyl)hexahydropyrrolo[3,4-c]pyrrole-2(1H)-carboxylate] had an IC50 of 0.255 µM. To `Nc1ccc(C(=O)N2C[C@H]3CN(C(=O)OCc4cc(Cl)cc(Cl)c4)C[C@H]3C2)nc1` [Example 1.07, (3aR,6aS)-3,5-dichlorobenzyl 5-(5-aminopicolinoyl)hexahydropyrrolo[3,4-c]pyrrole-2(1H)-carboxylate] belongs 6.11 µM; to `N#Cc1ccc(C(=O)N2C[C@H]3CN(C(=O)OCc4cc(Cl)cc(Cl)c4)C[C@H]3C2)cc1` [Example 1.08, (3aR,6aS)-3,5-dichlorobenzyl 5-(4-cyanobenzoyl)hexahydropyrrolo[3,4-c]pyrrole-2(1H)-carboxylate], 1.2 µM; to `COC(=O)c1ccc(C(=O)N2C[C@H]3CN(C(=O)OCc4cc(Cl)cc(Cl)c4)C[C@H]3C2)cc1` [Example 1.09, (3aR,6aS)-3,5-dichlorobenzyl 5-(4-(methoxycarbonyl)benzoyl)hexahydropyrrolo[3,4-c]pyrrole-2(1H)-carboxylate], 0.118 µM. Take `NS(=O)(=O)c1ccc(C(=O)N2C[C@H]3CCN(C(=O)/C=C/c4ccc(OC(F)(F)F)cc4)CC[C@H]3C2)cc1` [Example 1.10, 4-{(3aS,8aR)-6-[(E)-3-(4-trifluoromethoxy-phenyl)-acryloyl]-octahydro-pyrrolo[3,4-d]azepine-2-carbonyl}-benzenesulfonamide]: the IC50 is 0.002 µM. The same measure for `NS(=O)(=O)c1ccc(C(=O)N2C[C@H]3CN(C(=O)OCc4ccc(OC(F)(F)F)cc4)C[C@@H]3C2)cc1F` [Example 1.11, (3aS,6aS)-5-(3-fluoro-4-sulfamoyl-benzoyl)-hexahydro-pyrrolo[3,4-c]pyrrole-2-carboxylic acid 4-trifluoromethoxy-benzyl ester]: 0.001 µM; for `O=C(OCc1ccc(OC(F)(F)F)cc1)N1C[C@@H]2CN(C(=O)c3ccc(=O)[nH]c3)C[C@H]2C1` [Example 1.12, (3aS,6aS)-5-(6-oxo-1,6-dihydro-pyridine-3-carbonyl)-hexahydro-pyrrolo[3,4-c]pyrrole-2-carboxylic acid 4-trifluoromethoxy-benzyl ester]: 0.44 µM. In turn, `NS(=O)(=O)c1ccc(C(=O)N2C[C@H]3CN(C(=O)OCc4ccc(OC(F)(F)F)cc4)C[C@@H]3C2)nc1` [Example 1.13, (3aS,6aS)-5-(5-sulfamoyl-pyridine-2-carbonyl)-hexahydro-pyrrolo[3,4-c]pyrrole-2-carboxylic acid 4-trifluoromethoxy-benzyl ester] yielded an IC50 of 0.001 µM. The compound `Cn1cc(S(N)(=O)=O)cc1C(=O)N1C[C@H]2CN(C(=O)OCc3ccc(OC(F)(F)F)cc3)C[C@@H]2C1` [Example 1.14, (3 aS,6aS)-5-(1-methyl-4-sulfamoyl-1H-pyrrole-2-carbonyl)-hexahydro-pyrrolo[3,4-c]pyrrole-2-carboxylic acid 4-trifluoromethoxy-benzyl ester] returned an IC50 of 0.064 µM. `Cn1c(C(=O)N2C[C@H]3CN(C(=O)OCc4ccc(OC(F)(F)F)cc4)C[C@@H]3C2)ccc1S(N)(=O)=O` [Example 1.15, (3 aS,6aS)-5-(1-methyl-5-sulfamoyl-1H-pyrrole-2-carbonyl)-hexahydro-pyrrolo[3,4-c]pyrrole-2-carboxylic acid 4-trifluoromethoxy-benzyl ester] yielded an IC50 of 0.0585 µM. To `O=C(OCc1ccc(OC(F)(F)F)cc1)N1C[C@@H]2CN(C(=O)c3ccc(O)cn3)C[C@H]2C1` [Example 1.17, (3aS,6aS)-5-(5-hydroxy-pyridine-2-carbonyl)-hexahydro-pyrrolo[3,4-c]pyrrole-2-carboxylic acid 4-trifluoromethoxy benzyl ester] belongs 0.025 µM; to `O=C(OCc1ccc(OC(F)(F)F)cc1)N1C[C@@H]2CN(C(=O)c3ccc(O)cc3)C[C@H]2C1` [Example 1.18, (3aS,6aS)-5-(4-hydroxy-benzoyl)-hexahydro-pyrrolo[3,4-c]pyrrole-2-carboxylic acid 4-trifluoromethoxy-benzyl ester], 0.013 µM; to `NS(=O)(=O)c1ccc(C(=O)N2C[C@H]3CN(C(=O)OCc4ccc(OC(F)(F)F)cc4)C[C@@H]3C2)c(F)c1` [Example 1.19, (3 aS,6aS)-5-(2-fluoro-4-sulfamoyl-benzoyl)-hexahydro-pyrrolo[3,4-c]pyrrole-2-carboxylic acid 4-trifluoromethoxy-benzyl ester], 0.004 µM.
